{
  "source": "patent US12233081B2",
  "about": "“Hygromycin a compounds and methods of treating spirochete diseases” (priority 2018, dated 2025)",
  "key": {"[1]": {"tested_on": "gut microbiome", "assay": "gut microbiome 16S rRNA sequencing of stool of infected, treated mice", "details": "subcutaneous 156 mg/kg every 12 hours for 5 days"}, "[2]": {"tested_on": "B. burgdorferi N40", "assay": "C3H mice infected with Borrelia burgdorferi, cell counts in skin tissue", "format": "in vivo", "details": "156 mg/kg IP injection, 5 days of dosing", "experimental": "C3H mice (Charles River Laboratories) are used in classical Lyme disease infection model. Mice were rested for more than 1 day after delivery before infected with 10^5 B. burgdorferi N40 cells by subcutaneous injection. Infection was established for 3 weeks. 100 μl of saline, ceftriaxone or hygromycin A was administered by IP injection. Compounds of the invention can also be tested for efficacy as described herein.\nCeftriaxone (USP grade) was purchased from Sigma-Aldrich. Saline was purchased from Baxter Healthcare. Ceftriaxone powder was dissolved into saline to 31.2 mg/ml solution. Hygromycin A stock solution at 200 mg/ml was diluted into saline to make 50 mg/ml (250 mg/kg), 15 mg/ml (75 mg/kg), 14 mg/ml (70 mg/kg), 10 mg/ml (50 mg/kg) and 5 mg/ml (25 mg/kg) solutions.\nIn the B. burgdorferi mice infection model, skin is the tissue with highest bacterial burden. After sacrificing mice 2 days after 5 days of dosing, we took 100 mg skin tissue from mouse ear, homogenized the tissue and plated on BSK-II semi-agar plates for cell number counts. No colony appearing on the plates is considered as clearance of the infection."}},
  "data": [
    {"smiles": "CO/N=C(\\C(=O)N[C@@H]1C(=O)N2C(C(=O)O)=C(CSc3nc(=O)c(=O)[nH]n3C)CS[C@H]12)c1csc(N)n1", "note": "[Ceftriaxone]", "values": [
      {"measurement": "Acholeplasmataceae change in percent relative abundance", "setting": "[1]", "result": 0.213, "unit": "%"},
      {"measurement": "Aerococcaceae change in percent relative abundance", "setting": "[1]", "result": 0.000, "unit": "%"},
      {"measurement": "Anaerolineaceae change in percent relative abundance", "setting": "[1]", "result": 0.000, "unit": "%"},
      {"measurement": "Anaeroplasmataceae change in percent relative abundance", "setting": "[1]", "result": 0.000, "unit": "%"},
      {"measurement": "Anaplasmataceae change in percent relative abundance", "setting": "[1]", "result": 0.001, "unit": "%"},
      {"measurement": "Aspergillaceae change in percent relative abundance", "setting": "[1]", "result": 0.000, "unit": "%"},
      {"measurement": "Asteraceae change in percent relative abundance", "setting": "[1]", "result": 0.011, "unit": "%"},
      {"measurement": "Bacillaceae change in percent relative abundance", "setting": "[1]", "result": 0.055, "unit": "%"},
      {"measurement": "Bacillales change in percent relative abundance", "setting": "[1]", "result": "−0.174", "unit": "%"},
      {"measurement": "Bacteroidaceae change in percent relative abundance", "setting": "[1]", "result": "−26.593", "unit": "%"},
      {"measurement": "Bifidobacteriaceae change in percent relative abundance", "setting": "[1]", "result": 0.000, "unit": "%"},
      {"measurement": "Brucellaceae change in percent relative abundance", "setting": "[1]", "result": 0.000, "unit": "%"},
      {"measurement": "Camobacteriaceae change in percent relative abundance", "setting": "[1]", "result": 0.000, "unit": "%"},
      {"measurement": "Chitinophagaceae change in percent relative abundance", "setting": "[1]", "result": 0.000, "unit": "%"},
      {"measurement": "Christensenellaceae change in percent relative abundance", "setting": "[1]", "result": 0.000, "unit": "%"},
      {"measurement": "Clostridiaceae change in percent relative abundance", "setting": "[1]", "result": "−10.423", "unit": "%"},
      {"measurement": "Clostridiales change in percent relative abundance", "setting": "[1]", "result": "−0.174", "unit": "%"},
      {"measurement": "Clostridiales family xi. incertae sedis change in percent relative abundance", "setting": "[1]", "result": "−0.050", "unit": "%"},
      {"measurement": "Clostridiales family xiii. incertae sedis change in percent relative abundance", "setting": "[1]", "result": "−0.015", "unit": "%"},
      {"measurement": "Coriobacteriaceae change in percent relative abundance", "setting": "[1]", "result": "−0.049", "unit": "%"},
      {"measurement": "Corynebacteriaceae change in percent relative abundance", "setting": "[1]", "result": 0.002, "unit": "%"},
      {"measurement": "Cytophagaceae change in percent relative abundance", "setting": "[1]", "result": 0.000, "unit": "%"},
      {"measurement": "Deferribacteraceae change in percent relative abundance", "setting": "[1]", "result": "−1.344", "unit": "%"},
      {"measurement": "Defluviitaleaceae change in percent relative abundance", "setting": "[1]", "result": "−0.002", "unit": "%"},
      {"measurement": "Desulfobacteraceae change in percent relative abundance", "setting": "[1]", "result": 0.000, "unit": "%"},
      {"measurement": "Enterobacteriaceae change in percent relative abundance", "setting": "[1]", "result": "−0.487", "unit": "%"},
      {"measurement": "Enterococcaceae change in percent relative abundance", "setting": "[1]", "result": 77.7, "unit": "%"},
      {"measurement": "Erysipelotrichaceae change in percent relative abundance", "setting": "[1]", "result": "−1.012", "unit": "%"},
      {"measurement": "Eubacteriaceae change in percent relative abundance", "setting": "[1]", "result": "−3.445", "unit": "%"},
      {"measurement": "Fabaceae change in percent relative abundance", "setting": "[1]", "result": 0.003, "unit": "%"},
      {"measurement": "Flavobacteriaceae change in percent relative abundance", "setting": "[1]", "result": 0.000, "unit": "%"},
      {"measurement": "Francisellaceae change in percent relative abundance", "setting": "[1]", "result": 0.000, "unit": "%"},
      {"measurement": "Fusobacteriaceae change in percent relative abundance", "setting": "[1]", "result": 0.001, "unit": "%"},
      {"measurement": "Gammaproteobacteria change in percent relative abundance", "setting": "[1]", "result": "−0.008", "unit": "%"},
      {"measurement": "Gloeobacteraceae change in percent relative abundance", "setting": "[1]", "result": "−0.018", "unit": "%"},
      {"measurement": "Gracilibacteraceae change in percent relative abundance", "setting": "[1]", "result": "−0.087", "unit": "%"},
      {"measurement": "Halomonadaceae change in percent relative abundance", "setting": "[1]", "result": 0.000, "unit": "%"},
      {"measurement": "Hylidae change in percent relative abundance", "setting": "[1]", "result": 0.001, "unit": "%"},
      {"measurement": "Kopriimonadaceae change in percent relative abundance", "setting": "[1]", "result": 0.000, "unit": "%"},
      {"measurement": "Lachnospiraceae change in percent relative abundance", "setting": "[1]", "result": "−11.193", "unit": "%"},
      {"measurement": "Lactobacillaceae change in percent relative abundance", "setting": "[1]", "result": "−1.712", "unit": "%"},
      {"measurement": "Leuconostocaceae change in percent relative abundance", "setting": "[1]", "result": 0.015, "unit": "%"},
      {"measurement": "Methylobacteriaceae change in percent relative abundance", "setting": "[1]", "result": 0.001, "unit": "%"},
      {"measurement": "Microbacteriaceae change in percent relative abundance", "setting": "[1]", "result": 0.001, "unit": "%"},
      {"measurement": "Mucoraceae change in percent relative abundance", "setting": "[1]", "result": 0.000, "unit": "%"},
      {"measurement": "Nostocaceae change in percent relative abundance", "setting": "[1]", "result": 0.002, "unit": "%"},
      {"measurement": "Onagraceae change in percent relative abundance", "setting": "[1]", "result": 0.000, "unit": "%"},
      {"measurement": "Oscillatoriales change in percent relative abundance", "setting": "[1]", "result": 0.090, "unit": "%"},
      {"measurement": "Oscillospiraceae change in percent relative abundance", "setting": "[1]", "result": "−0.009", "unit": "%"},
      {"measurement": "Paenibacillaceae change in percent relative abundance", "setting": "[1]", "result": 0.003, "unit": "%"},
      {"measurement": "Pasteurellaceae change in percent relative abundance", "setting": "[1]", "result": 0.001, "unit": "%"},
      {"measurement": "Pelobacteraceae change in percent relative abundance", "setting": "[1]", "result": 0.000, "unit": "%"},
      {"measurement": "Peptococcaceae change in percent relative abundance", "setting": "[1]", "result": "−0.602", "unit": "%"},
      {"measurement": "Peptoniphilaceae change in percent relative abundance", "setting": "[1]", "result": 0.001, "unit": "%"},
      {"measurement": "Peptostreptococcaceae change in percent relative abundance", "setting": "[1]", "result": "−0.185", "unit": "%"},
      {"measurement": "Physalacriaceae change in percent relative abundance", "setting": "[1]", "result": 0.000, "unit": "%"},
      {"measurement": "Poaceae change in percent relative abundance", "setting": "[1]", "result": 0.820, "unit": "%"},
      {"measurement": "Polyangiaceae change in percent relative abundance", "setting": "[1]", "result": 0.001, "unit": "%"},
      {"measurement": "Porphyromonadaceae change in percent relative abundance", "setting": "[1]", "result": "−24.493", "unit": "%"},
      {"measurement": "Prevotellaceae change in percent relative abundance", "setting": "[1]", "result": "−0.417", "unit": "%"},
      {"measurement": "Pseudomonadaceae change in percent relative abundance", "setting": "[1]", "result": 0.002, "unit": "%"},
      {"measurement": "Rhizobiaceae change in percent relative abundance", "setting": "[1]", "result": 0.001, "unit": "%"},
      {"measurement": "Rhodobacteraceae change in percent relative abundance", "setting": "[1]", "result": 0.000, "unit": "%"},
      {"measurement": "Rikenellaceae change in percent relative abundance", "setting": "[1]", "result": "−6.750", "unit": "%"},
      {"measurement": "Ruminococcaceae change in percent relative abundance", "setting": "[1]", "result": "−2.217", "unit": "%"},
      {"measurement": "Sphingomonadaceae change in percent relative abundance", "setting": "[1]", "result": 0.000, "unit": "%"},
      {"measurement": "Spirochaetaceae change in percent relative abundance", "setting": "[1]", "result": "−0.055", "unit": "%"},
      {"measurement": "Spiroplasmataceae change in percent relative abundance", "setting": "[1]", "result": "−0.051", "unit": "%"},
      {"measurement": "Staphylococcaceae change in percent relative abundance", "setting": "[1]", "result": 0.047, "unit": "%"},
      {"measurement": "Streptococcaceae change in percent relative abundance", "setting": "[1]", "result": 12.672, "unit": "%"},
      {"measurement": "Thermoanaerobacteraceae change in percent relative abundance", "setting": "[1]", "result": "−0.033", "unit": "%"},
      {"measurement": "Veillonellaceae change in percent relative abundance", "setting": "[1]", "result": 0.000, "unit": "%"},
      {"measurement": "Verrucomicrobiaceae change in percent relative abundance", "setting": "[1]", "result": "−0.004", "unit": "%"},
      {"measurement": "Xanthomonadaceae change in percent relative abundance", "setting": "[1]", "result": 0.001, "unit": "%"},
      {"measurement": "all other commensal taxa such as Bacteroidaceae and Lactobacillaceae", "setting": "[1]", "result": "depleted"},
      {"measurement": "mice with Enterococcaceae blooms", "setting": "[1]", "result": "5/5"},
      {"measurement": "Enterococcaceae change in percent relative abundance", "setting": "[1]; listed as Cef", "result": 77.719, "unit": "%"},
      {"measurement": "# of B. burgdorferi cells in 100 mg skin tissue", "setting": "[2]", "result": "<1"}
    ]}
  ]
}
